Measurements taken from US8227205B2 (priority 2007, dated 2012).

Experiments:
Type in all cases: cell-based
Jurkat cells = test: CytoTox-Glo live and dead cell luminescence assay; settings: Jurkat cells, 10,000 cells/well, 6 hours, FIG. 5/FIG. 7
Method: Ionomycin (a calcium ionophore which affects calcium flux across cell membranes, and therefore a model necrosis inducing agent at high concentrations) was two fold serially diluted from 100 μM in RPMI 1640+10% FBS in 50 μL volumes. Jurkat cells were added to 10,000 cells/well in a 50 μL volume. The plate was shaken briefly using an orbital shaker and then incubated for 6 hours at 37° C. CytoTox-Glo Reagent was prepared as above and added to each well in a equal volume (100 μL) per well. The plate was incubated at room temperature for 15 minutes and the dead cell signal measured using a BMG PolarStar. Digitonin (20 mg/mL in DMSO) was diluted to 300 μg/mL in CytoTox-Glo buffer and added in 20 μL volumes per well to facilitate complete cellular lysis. Luminescence was measured after 15 minutes of incubation at room temperature.
The luminescent signal collected after lysis was adjusted to reflect the “live cell” contribution by subtracting the initial dead cell signal. […]
Staurosporine (multiple mechanism apoptosis inducer) was two fold serially diluted from 20 μM in RPMI 1640+10% FBS in a microwell plate in 50 μL, volumes. […] The plate was incubated at room temperature for 15 minutes and the dead cell signal measured using a BMG PolarStar. […] Luminescence was measured after 15 minutes of incubation at room temperature. […]

K562cells = test: CytoTox-Glo dual measurement of cell viability and cytotoxicity (dead cell luminescence, then digitonin lysis, subtractive live cell signal); settings: K562 cells, 5,000 cells/well, 24 hours, two-fold serial dilution from 10 μM, FIG. 11A
Method: (§1) Campothecin was two-fold serially-diluted in RPMI 1640+10% FBS medium from 10 μM and added in 50 μL volumes. The cells were incubated at 37° C., 5% CO2 for 24 hours. CytoTox-Glo reagent was prepared as described above and added to each well in an equal volume (100 μL). After 15 minutes of incubation, the dead cell signal was measured. Digitonin (20 mg/mL in DMSO) was diluted in CytoTox-Glo buffer and added in 20 μL volumes to each well to facilitate complete cell lysis. Luminescence was measured after 15 minutes of incubation at room temperature.
The luminescent signal collected after lysis was adjusted to reflect the “live cell” contribution by subtracting the initial dead cell signal. The data were plotted as the non-viable and viable signals versus the concentration of campothecin (FIG. 11A). […] If only viability was measured, one might conclude that the compound was substantially cytotoxic. If only cytotoxicity was measured, one might conclude that the compound was not very potent. Either interpretation would be faulty.

HeLa cells = test: as above; settings: HeLa cells, 10,000 cells/well, 24 hours, FIG. 11B/11C
Method: In FIG. 11B, HeLa cells were seeded at a 10,000 cells/well in DMEM+10% FBS in 50 μl volumes and incubated overnight at 37° C. in 5% CO2. Nocodazole was two-fold serially diluted in DMEM+10% FBS in a separate plate from 2 μM and added in 50 μL it volumes (highest final dosage is 1,000 nM). The cells were allowed to incubate with the compound for 24 hours. CytoTox-Glo Reagent was prepared as above and added to each well in an equal volume (100 μL). After 15 minutes of incubation, the dead cell signal was collected. Digitonin (20 mg/mL in DMSO) was diluted in CytoTox-Glo buffer and added in 20 μL volumes to each well to facilitate complete cell lysis. Luminescence was measured after 15 minutes of incubation at room temperature.
The luminescent signal collected after lysis was adjusted to reflect the “live cell” contribution by subtracting the initial dead cell signal. The data were plotted as the non-viable and viable signals versus the concentration of nocodazole.
In FIG. 11C, HeLa cells were seeded at a 10,000 cells/well in DMEM+10% FBS in 50 μL volumes and incubated overnight at 37° C. in 5% CO2. Colchicine was two-fold serially diluted in DMEM+10% FBS in a separate plate from 1,000 nM and added in 50 μL volumes (highest final dosage was 500 nM). The cells were allowed to incubate with the compound for 24 hours. […] Luminescence was measured after 15 minutes of incubation at room temperature. […]

DU-145 cells = test: CytoTox-Glo live and dead cell luminescence assay; settings: DU-145 cells, 5,000 cells/well, 48 hours, FIG. 10A
Method: as §1, with “DU-145 cells were seeded at a density of 5,000 cells/well in 50 μL of MEM+10% FBS and allowed to attach overnight. Epoxomicin (a proteasome inhibitor)” for “Campothecin”, “serially diluted from 5 μM” for “two-fold serially-diluted”, “MEM+10%” for “RPMI 1640+10%”, “FBS” for “FBS medium from 10 μM”, “with the compound” for “at 37° C., 5% CO2”, “48” for “24”
The luminescent signal collected after lysis was adjusted to reflect the “live cell” contribution by subtracting the initial dead cell signal. The data were plotted as the non-viable and viable signals versus the concentration of epoxomicin (FIG. 10A). […] The data also represents yet another toxin and mechanistic form of cell death.

Row | SMILES | dead and live cell signals versus the concentration of compound (Jurkat cells) | non-viable and viable signals versus the concentration of compound (viability and cytotoxicity) (HeLa cells) | other results
1 | CN[C@@H]1C[C@H]2O[C@@](C)([C@@H]1OC)n1c3ccccc3c3c4c(c5c6ccccc6n2c5c31)C(=O)NC4 [Staurosporine] | live and dead cells were inversely complimentary |  | 
2 | CC[C@@]1(O)C(=O)OCc2c1cc1n(c2=O)Cc2cc3ccccc3nc2-1 [campothecin, Campothecin] |  |  | non-viable and viable signals versus the concentration of compound (viability and cytotoxicity) (K562cells): early cytotoxicity because of cell-cycle arrest
3 | COc1cc2c(c(OC)c1OC)-c1ccc(OC)c(=O)cc1[C@@H](NC(C)=O)CC2 [colchicine, Colchicine] |  | viability is reduced because of the cytotoxicity of the compound | 
4 | CC[C@H](C)[C@H](NC(=O)[C@H]([C@@H](C)CC)N(C)C(C)=O)C(=O)N[C@H](C(=O)N[C@@H](CC(C)C)C(=O)[C@@]1(C)CO1)[C@@H](C)O [epoxomicin, Epoxomicin] |  |  | non-viable and viable signals versus the concentration of compound (DU-145 cells): viable and non-viable cells were inversely complimentary
5 | C[C@H](CCC(=O)O)C[C@H](C)C[C@H](C)C(=O)/C=C(\O)[C@H](C)C[C@H](C)C/C=C/[C@@H](C)[C@@H](O)[C@@H](C)[C@@H](O)C[C@@H]1CC[C@@](C)([C@H]2CC[C@@](C)([C@@H](C)O)O2)O1 [ionomycin, Ionomycin] | live and dead cells were inversely complimentary |  | 
6 | COC(=O)Nc1nc2ccc(C(=O)c3cccs3)cc2[nH]1 [nocodazole, Nocodazole] |  | viability and cytotoxicity are ratiometric | 
